The source of these data is article PMC3826128 (Marine Drugs, 2013).

Assay [1] deals with T1, Leishmania donovani DNA topoisomerase IB enzyme (LdTopIB) (Leishmania donovani, UniProt A0A3Q8IHS4+Q8WQM6). As to conditions: earlier work of the group; cited from earlier work.
Assay [2] deals with T2, human topoisomerase IB enzyme (hTopIB) (Homo sapiens, UniProt P11387).
T2 sequence (P11387 1-765): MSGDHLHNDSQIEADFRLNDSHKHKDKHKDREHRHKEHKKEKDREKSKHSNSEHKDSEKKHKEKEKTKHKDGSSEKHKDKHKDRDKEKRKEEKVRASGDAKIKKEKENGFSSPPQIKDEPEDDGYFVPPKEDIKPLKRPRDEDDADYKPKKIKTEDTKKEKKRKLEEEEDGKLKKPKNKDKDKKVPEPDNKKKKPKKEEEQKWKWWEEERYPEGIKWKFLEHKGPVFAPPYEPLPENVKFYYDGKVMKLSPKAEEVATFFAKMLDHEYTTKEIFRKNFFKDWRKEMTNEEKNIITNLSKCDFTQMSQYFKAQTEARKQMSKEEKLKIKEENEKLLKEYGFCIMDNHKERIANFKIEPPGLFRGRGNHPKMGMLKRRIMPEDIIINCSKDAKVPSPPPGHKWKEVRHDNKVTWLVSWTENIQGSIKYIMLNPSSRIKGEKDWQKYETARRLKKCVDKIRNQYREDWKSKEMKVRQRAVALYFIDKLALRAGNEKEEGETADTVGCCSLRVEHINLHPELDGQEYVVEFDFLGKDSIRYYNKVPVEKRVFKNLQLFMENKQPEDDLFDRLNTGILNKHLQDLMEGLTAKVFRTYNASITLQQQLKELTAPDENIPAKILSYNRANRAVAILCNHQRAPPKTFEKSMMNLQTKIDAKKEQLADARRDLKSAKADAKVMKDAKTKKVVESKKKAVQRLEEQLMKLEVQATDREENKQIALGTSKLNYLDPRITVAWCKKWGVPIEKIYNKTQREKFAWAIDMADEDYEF
As to the kind of experiment: Inhibition of the relaxation activity of hTopIB (plasmid DNA relaxation assay). The format is biochemical. As to conditions: 30 min at 37 °C, 1–100 µM. The procedure:
One unit hTopIB was assayed in a plasmid DNA relaxation assay for 30 min at 37 °C in the presence of 1–100 µM of either acids 1 or 2. Reaction products were resolved in agarose gel and subsequently visualized by ethidium bromide staining. The relative position of the negatively supercoiled DNA substrate is indicated by Sc, R is the relaxed DNA, whereas the ladder of relaxed DNA topoisomer bands is shown in between. Reactions were stopped with a mixture of 1% SDS and 6.1 µg of proteinase K. Lane 1 contains 0.5 µg of pSK plasmid DNA and lane 2, indicated by a 0, is 10% DMSO.
(§1) The LdTopIB and hTopIB inhibitory bioassays were performed as previously described. A brief description of the experimental procedure can be found as the header of Figure 1 and Figure 3.

The subject of assay [3] is LdTopIB CPT^R (LdTopIL^1−561/S175end). As to the kind of experiment: Inhibition of CPT-resistant doubly truncated LdTopIB. As to conditions: 100 µM, 4 min at 25 °C, judged by supercoiled DNA band. The format is biochemical, Leishmania donovani. The protocol: Figure 4 Methoxylated fatty acids inhibit LdTopIB by a CPT-independent mechanism. […] Samples were incubated for 4 min at 25 °C, stopped with 1% SDS and digested for one extra hour at 37 °C in the presence of 1 mg/mL proteinase K. DNA was extracted with one volume of phenol-chloroform and samples were run on a 1% agarose gel containing ethidium bromide to a final concentration of 40 μg/mL in order to separate supercoiled and relaxed DNA. The nicked band corresponds to the stabilized cleavage complexes. The results are representative of three independent trials.

In assay [4] the test system is Murine Macrophages BALB/c. As to the kind of experiment: Toxicity towards murine macrophages. Type of assay: cell-based. As to conditions: Mus musculus, Macrophage. From the text:
Murine macrophages were chosen as reference for this study since Leishmania spp. normally infects macrophages and in macrophages is where Leishmania promastigotes are transformed into Leishmania amastigotes. […] The experimental procedures employed to assess the toxicity of acids 1 and 2 towards L. infantum and L. donovani are the same as the ones previously described. CPT was used as the control drug.

Assay [5] deals with T1, Leishmania donovani DNA topoisomerase IB enzyme (LdTopIB). Put plainly: Inhibition of the relaxation activity of recombinant LdTopIB (plasmid DNA relaxation assay). The format is biochemical. As to conditions: 30 min at 37 °C, 1.56–100 µM. The protocol: One unit of recombinant LdTopIB was assayed in a plasmid DNA relaxation assay for 30 min at 37 °C in the presence of 1.56–100 µM of either acids 1 or 2. Reaction products were resolved in agarose gel and subsequently visualized by ethidium bromide staining. The relative position of the negatively supercoiled DNA substrate is indicated by Sc, R is the relaxed DNA, whereas the ladder of relaxed DNA topoisomer bands is shown in between. Reactions were stopped with a mixture of 1% SDS and 6.1 µg of proteinase K. Lane 1 contains 0.5 µg of pSK plasmid DNA and lane 2, indicated by a 0, is 10% DMSO.
as §1

In assay [6] the test system is L. infantum promastigotes. Put plainly: Toxicity towards L. infantum promastigotes. Type of assay: cell-based, Leishmania infantum. From the text:
(§2) The experimental procedures employed to assess the toxicity of acids 1 and 2 towards L. infantum and L. donovani are the same as the ones previously described. CPT was used as the control drug.

Assay [7] relates to L. donovani promastigotes. Put plainly: Toxicity towards L. donovani promastigotes. Type of assay: cell-based. As to conditions: Leishmania donovani.
Source text: as §2

Setting [8] is: relaxation activity, read-out: LdTopIB EC50.

Like-named read-outs stand apart in the source and are kept apart here.

T1 sequence (A0A3Q8IHS4 entry or part of it): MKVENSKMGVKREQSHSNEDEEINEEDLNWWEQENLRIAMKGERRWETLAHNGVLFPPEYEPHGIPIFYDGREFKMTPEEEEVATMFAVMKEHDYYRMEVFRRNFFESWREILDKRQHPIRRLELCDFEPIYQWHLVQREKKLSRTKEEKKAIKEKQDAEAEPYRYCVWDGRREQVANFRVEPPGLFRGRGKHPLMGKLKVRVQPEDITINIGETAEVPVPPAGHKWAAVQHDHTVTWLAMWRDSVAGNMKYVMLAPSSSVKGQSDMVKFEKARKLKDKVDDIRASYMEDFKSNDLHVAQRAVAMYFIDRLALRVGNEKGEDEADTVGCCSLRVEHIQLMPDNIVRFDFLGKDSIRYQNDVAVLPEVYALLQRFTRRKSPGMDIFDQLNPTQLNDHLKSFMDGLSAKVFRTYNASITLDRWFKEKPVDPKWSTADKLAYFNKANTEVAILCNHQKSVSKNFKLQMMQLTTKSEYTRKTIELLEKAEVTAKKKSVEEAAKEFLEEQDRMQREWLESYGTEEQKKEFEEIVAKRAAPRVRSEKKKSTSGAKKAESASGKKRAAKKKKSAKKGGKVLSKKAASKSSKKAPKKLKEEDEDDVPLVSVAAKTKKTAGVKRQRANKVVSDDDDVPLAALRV
T1 sequence (Q8WQM6 entry or part of it): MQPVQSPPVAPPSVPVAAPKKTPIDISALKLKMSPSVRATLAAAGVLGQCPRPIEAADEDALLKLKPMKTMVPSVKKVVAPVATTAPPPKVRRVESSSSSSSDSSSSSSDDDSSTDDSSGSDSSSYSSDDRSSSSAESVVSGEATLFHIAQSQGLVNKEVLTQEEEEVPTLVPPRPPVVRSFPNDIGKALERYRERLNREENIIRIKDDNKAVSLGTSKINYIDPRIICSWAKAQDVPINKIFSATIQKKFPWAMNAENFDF

For the molecule `CCCCCCCCCCC#CCCCC(OC)C(=O)O` (racemic) [(±)-2-OMe-6-heptadecynoic acid], the EC50 in assay [1] is 17 ± 1 µM.
Regarding `CCCCCCCCCC/C=C\CCCC(OC)C(=O)O` (racemic) [(±)-2-methoxy-6Z-heptadecenoic acid], the EC50 in assay [1] was 41 ± 6 µM.
Consider `CCCCCCCCCC/C=C\CC/C=C\CCC(OC)C(=O)O` (racemic) [compound 1, (5Z,9Z)-(±)-2-methoxy-5,9-eicosadienoic acid], for which the EC50 in assay [2] was more than 100 µM; in assay [5] (setting [8]), 31 ± 2 µM; in assay [6], 260 ± 20 µM; in assay [6] (Leishmania infantum), 240 to 260 µM. Further, the “Inhibition of LdTopIB CPT^R” value in assay [3] was “completely inhibit”. For the same molecule, the half-inhibitory concentration (IC50) in assay [4] came to 110 ± 10 µM.
As for `CCCCCCCCCCC#CCCC#CCCC(OC)C(=O)O` (racemic) [compound 2, (±)-2-methoxy-5,9-eicosadiynoic acid], the EC50 in assay [2] was more than 100 µM; in assay [5] (setting [8]) it was 22 ± 1 µM; in assay [6], 240 ± 10 µM; in assay [6] (Leishmania infantum) it was 240 to 260 µM. The “Inhibition of LdTopIB CPT^R” value in assay [3] is “completely inhibit”. The same molecule gave an IC50 in assay [4] of 90 ± 20 µM.
As to `CCCCCCCCCCCCCC#CCCCC(OC)C(=O)O` (racemic) [compound 12, (±)-2-methoxy-6-icosynoic acid], the EC50 in assay [2] was more than 100 µM; in assay [7] (promastigotes), 100 µM; in assay [5] (setting [8]) it was 53 ± 3 µM. The IC50 in assay [7] (footnote a, in the column L. infantum EC50, read-out: IC50 against L. donovani promastigotes) was 100 ± 10 µM; in assay [4], more than 100 µM.
Take `CC[C@@]1(O)C(=O)OCc2c1cc1n(c2=O)Cc2cc3ccccc3nc2-1` [CPT, Camptothecin, reference compound]: in assay [3], the “Inhibition of LdTopIB CPT^R” value is given as “not able to inhibit”. In addition, 0.6 ± 0.1 µM corresponded to half-maximal inhibition in assay [4] (IC50). Moreover, the EC50 in assay [5] (LdTopIB EC50, relaxation activity) was found to be 0.7 ± 0.1 µM; in assay [6] (Leishmania infantum), 1.1 ± 0.1 µM.
